In patent publication US11726083B2, “Method for testing drug response of cardiomyocytes” (Myoridge Co. Ltd., priority 2017, dated 2023):
Where two headings read alike, the source gives them in different places.

Test system: cardiomyocytes prepared by inducing differentiation of a human iPS cell line (253G1)
Conditions: for rate of change in Ca^2+ duration / rate of change in heart rate: 100% = no change
[1] = sample 2A: 100 nM, culture medium not containing hemoglobin, liquid-surface distance 6.67 mm
[2] = sample 2C: 100 nM, 0.5 mass % hemoglobin, liquid-surface distance 6.67 mm
[3] = sample 2D: 1000 nM, 0.5 mass % hemoglobin, liquid-surface distance 6.67 mm
[4] = sample 2E: 100 nM, 1.0 mass % hemoglobin, liquid-surface distance 6.67 mm
[5] = sample 2F: 1000 nM, 1.0 mass % hemoglobin, liquid-surface distance 6.67 mm
[6] = sample 3A: 100 nM, liquid-surface distance 8.33 mm
[7] = sample 3C: 100 nM, liquid-surface distance 6.67 mm
[8] = sample 3E: 100 nM, liquid-surface distance 5.00 mm
[9] = sample 3G: 100 nM, liquid-surface distance 3.33 mm
[10] = sample 3H: 1000 nM, liquid-surface distance 3.33 mm
[11] = sample 3I: 100 nM, liquid-surface distance 1.67 mm
[12] = sample 3J: 1000 nM, liquid-surface distance 1.67 mm
[13] = sample 4A: 100 nM, control container (polystyrene), liquid-surface distance 6.67 mm
[14] = sample 4C: 100 nM, oxygen-permeable container (VECELL 96-well plate), liquid-surface distance 6.67 mm
[15] = sample 5M: 300 μM, no hemoglobin, liquid-surface distance 6.67 mm
[16] = sample 5N: 300 μM, 2.0% by mass of hemoglobin, liquid-surface distance 1.0 mm
[17] = sample 5P: 500 μM, 2.0% by mass of hemoglobin, liquid-surface distance 1.0 mm

CC(C)NCC(O)c1ccc(O)c(O)c1 (stereo not shown) [isoproterenol]
expected drug response (tachycardic response) [1]: detected | pulsation (pulsation arrest) [1]: did not stop | pulsation (pulsation arrest) (sample 2B: 1000 nM, culture medium not containing hemoglobin, liquid-surface distance 6.67 mm): stopped at a high frequency | expected drug response [2]: detected | pulsation (pulsation arrest) [2]: did not stop | expected drug response [3]: detected | pulsation (pulsation arrest) [3]: did not stop at all | expected drug response [4]: detected | pulsation (pulsation arrest) [4]: did not stop | expected drug response [5]: detected | pulsation (pulsation arrest) [5]: did not stop at all | expected drug response (tachycardic response) [6]: detected | pulsation (pulsation arrest) [6]: did not stop | pulsation (pulsation arrest) (sample 3B: 1000 nM, liquid-surface distance 8.33 mm): stopped at a high frequency | expected drug response [7]: detected | pulsation (pulsation arrest) [7]: did not stop | pulsation (pulsation arrest) (sample 3D: 1000 nM, liquid-surface distance 6.67 mm): stopped at a high frequency | expected drug response [8]: detected | pulsation (pulsation arrest) [8]: did not stop | frequency of the occurrence of the pulsation arrest (sample 3F: 1000 nM, liquid-surface distance 5.00 mm): about 50% | expected drug response [9]: detected | pulsation (pulsation arrest) [9]: did not stop | expected drug response [10]: detected | pulsation (pulsation arrest) [10]: hardly stopped | expected drug response [11]: detected | pulsation (pulsation arrest) [11]: did not stop | expected drug response [12]: detected | pulsation (pulsation arrest) [12]: did not stop at all | expected drug response (tachycardic response) [13]: detected | pulsation (pulsation arrest) [13]: did not stop | pulsation (pulsation arrest) (sample 4B: 1000 nM, control container (polystyrene), liquid-surface distance 6.67 mm): stopped at a high frequency | expected drug response [14]: detected | pulsation (pulsation arrest) [14]: did not stop | pulsation (pulsation arrest) (sample 4D: 1000 nM, oxygen-permeable container (VECELL 96-well plate), liquid-surface distance 6.67 mm): stopped only at a low frequency

Cc1cccc(CCN2CCC(C(=O)c3ccc(NS(C)(=O)=O)cc3)CC2)n1 [E-4031]
pulsation (pulsation arrest) (sample 5E: 0.1 μM, no hemoglobin, liquid-surface distance 6.67 mm): did not stop | pulsation (pulsation arrest) (sample 5F: 0.1 μM, 0.5% by mass of hemoglobin, liquid-surface distance 1.67 mm): did not stop | pulsation (pulsation arrest) (sample 5G: 0.3 μM, no hemoglobin, liquid-surface distance 6.67 mm): stopped at a high frequency | pulsation (pulsation arrest) (sample 5H: 0.3 μM, 0.5% by mass of hemoglobin, liquid-surface distance 1.67 mm): did not stop

CC(C)(C)c1ccc(C(O)CCCN2CCC(C(O)(c3ccccc3)c3ccccc3)CC2)cc1 (stereo not shown) [terfenadine]
pulsation (pulsation arrest) (sample 5I: 0.1 μM, no hemoglobin, liquid-surface distance 6.67 mm): did not stop | pulsation (pulsation arrest) (sample 5J: 0.1 μM, 0.5% by mass of hemoglobin, liquid-surface distance 1.67 mm): did not stop | pulsation (pulsation arrest) (sample 5K: 0.7 μM, no hemoglobin, liquid-surface distance 6.67 mm): stopped at a high frequency | pulsation (pulsation arrest) (sample 5L: 0.7 μM, 0.5% by mass of hemoglobin, liquid-surface distance 1.67 mm): did not stop | rate of change in Ca^2+ duration (sample 6A: 0.3 μM, 0.5% by mass of hemoglobin, liquid-surface distance 1.67 mm): about 135% | rate of change in Ca^2+ duration (sample 6B: 0.5 μM, 0.5% by mass of hemoglobin, liquid-surface distance 1.67 mm): about 170%

Cc1[nH]c(=O)c(C#N)cc1-c1ccncc1 [milrinone]
expected drug response (tachycardic response) [15]: not detected | pulsation (pulsation arrest) [15]: did not stop | rate of change in heart rate [15]: 79% | expected drug response [16]: detected | pulsation (pulsation arrest) [16]: did not stop | rate of change in heart rate [16]: 118% | pulsation (pulsation arrest) (sample 5O: 500 μM, no hemoglobin, liquid-surface distance 6.67 mm): stopped at a high frequency | expected drug response (tachycardic response) [17]: detected | pulsation (pulsation arrest) [17]: did not stop | rate of change in heart rate [17]: 154%

hemoglobin: bovine hemoglobin (Nacalai tesque 17553-92), oxygen carrier added to the culture medium
occurrence of the pulsation arrest of the cardiomyocytes during the drug response testing (0.5 or 1.0 mass % hemoglobin added to the culture medium, isoproterenol 100/1000 nM, liquid-surface distance 6.67 mm (FIG. 3)): suppressed
